What all share (format): biochemical
In one assay the target is T1, Human recombinant LOXL2 (Homo sapiens, UniProt Q9Y4K0).
T1 construct: purchased R&D Systems
T1 sequence (Q9Y4K0 26-774): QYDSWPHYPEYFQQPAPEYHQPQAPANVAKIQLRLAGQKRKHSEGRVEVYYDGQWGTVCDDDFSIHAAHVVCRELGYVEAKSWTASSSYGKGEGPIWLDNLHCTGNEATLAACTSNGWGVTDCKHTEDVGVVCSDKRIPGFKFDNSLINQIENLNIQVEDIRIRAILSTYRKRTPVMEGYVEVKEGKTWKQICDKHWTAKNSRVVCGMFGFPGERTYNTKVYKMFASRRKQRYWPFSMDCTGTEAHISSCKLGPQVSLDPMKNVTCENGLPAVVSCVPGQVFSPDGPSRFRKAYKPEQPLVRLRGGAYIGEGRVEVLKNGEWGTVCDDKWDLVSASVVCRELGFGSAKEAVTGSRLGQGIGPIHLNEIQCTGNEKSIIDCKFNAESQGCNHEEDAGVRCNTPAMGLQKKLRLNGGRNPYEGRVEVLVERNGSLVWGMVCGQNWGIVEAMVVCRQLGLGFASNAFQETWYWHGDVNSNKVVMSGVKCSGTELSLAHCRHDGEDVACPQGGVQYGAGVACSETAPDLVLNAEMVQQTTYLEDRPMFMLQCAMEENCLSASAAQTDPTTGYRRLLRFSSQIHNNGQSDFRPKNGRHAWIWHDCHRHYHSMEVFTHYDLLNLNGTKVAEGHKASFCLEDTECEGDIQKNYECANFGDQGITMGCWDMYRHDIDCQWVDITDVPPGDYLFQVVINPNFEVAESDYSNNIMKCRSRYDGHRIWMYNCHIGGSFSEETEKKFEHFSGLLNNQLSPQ
The experiment in a line: Amplex Red oxidation assay, LOXL2 inhibition. The conditions noted are these: for pIC50: 30 min pre-incubation, read-out: LOXL2 IC50. The protocol:
For compound oxidation assays, the amount of hydrogen peroxide generated at a single concentration (30 µM) of compound relative to DMSO was measured.
(§1) The measurement of the enzymatic activity of all lysyl oxidase family members was based on the detection of hydrogen peroxide with an Amplex-Red oxidation assay, as previously described; miniaturized in 384 well formats, with the appropriate combination of substrate and assay buffer for each individual enzyme. After a 30 min pre-incubation of the enzyme at 37 °C with the test compound (or with different incubation times for the time-dependency assay), one volume of reaction mixture containing 120 μM Amplex Red (AR) (Life Technologies), 1.5 U/mL horseradish peroxidase (HRP) (Sigma-Aldrich) and the specific substrate was added to each sample. The relative fluorescence units (RFU) were then measured every 2.5 min for 30 min at 37 °C, excitation 565 nm and emission 590, on a BMG Clariostar Microplate Reader. All the substrates were used at concentrations corresponding to their Km towards the corresponding enzyme, or with a range of different concentrations for the substrate competition experiments.
(§2) Lysyl oxidases assay buffer contained 1.2 M urea, 50 mM sodium borate buffer, pH 8.2 and 100 µM β-aminoproprionitrile (BAPN, Sigma-Aldrich) was used for low control.
Recombinant human LOXL1 was expressed and purified from cDNA (GeneArt) and 10 mM putrescine was used as substrate. Recombinant human and mouse LOXL2 (R&D Systems) were challenged with 5 mM putrescine (Sigma-Aldrich) as the substrate. Rat and dog recombinant LOXL2 were amplified and purified in house from HEK-293 clones kindly provided by Dr. Fernando Rodríguez Pascual, Madrid University, and used in the same conditions as for the human form. 2 mM putrescine was used as the substrate for recombinant human LOXL3 (R&D Systems) and LOXL4 (Dr. Fernando Rodríguez Pascual, university of Madrid, Spain) assays.

For the next assay, the target named is T2, Human Fibroblast LOX (Homo sapiens, UniProt P28300).
T2 construct: Fibroblast LOX; endogenous in cells; host or cells: human fibroblasts
T2 sequence (P28300 169-417): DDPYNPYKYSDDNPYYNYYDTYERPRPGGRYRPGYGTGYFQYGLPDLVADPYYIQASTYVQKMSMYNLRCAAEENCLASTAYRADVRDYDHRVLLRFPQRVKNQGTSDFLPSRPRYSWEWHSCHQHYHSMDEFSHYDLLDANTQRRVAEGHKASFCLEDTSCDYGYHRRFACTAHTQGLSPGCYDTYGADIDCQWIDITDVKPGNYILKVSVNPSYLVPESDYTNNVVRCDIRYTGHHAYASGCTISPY
The experiment in a line: Amine oxidase inhibition profile, human fibroblast LOX. The note with it: for pIC50: read-out: Human Fibroblast LOX IC50. The protocol:
as §1, §2
Supplem entary Materi als:
Supplementary Table S1: Amine oxidase inhibition profile of PXS -4787, PXS-6302 and
Supplementary Table S2: Perm eability profile of PXS -6302.

In a further assay the target is T3, Dog Recombinant LOXL2 (Canis lupus familiaris, UniProt A0A8I3P9Y5).
T3 construct: made in house; host or cells: HEK-293 clones (provided by Dr. Fernando Rodríguez Pascual)
T3 sequence (A0A8I3P9Y5 1-777): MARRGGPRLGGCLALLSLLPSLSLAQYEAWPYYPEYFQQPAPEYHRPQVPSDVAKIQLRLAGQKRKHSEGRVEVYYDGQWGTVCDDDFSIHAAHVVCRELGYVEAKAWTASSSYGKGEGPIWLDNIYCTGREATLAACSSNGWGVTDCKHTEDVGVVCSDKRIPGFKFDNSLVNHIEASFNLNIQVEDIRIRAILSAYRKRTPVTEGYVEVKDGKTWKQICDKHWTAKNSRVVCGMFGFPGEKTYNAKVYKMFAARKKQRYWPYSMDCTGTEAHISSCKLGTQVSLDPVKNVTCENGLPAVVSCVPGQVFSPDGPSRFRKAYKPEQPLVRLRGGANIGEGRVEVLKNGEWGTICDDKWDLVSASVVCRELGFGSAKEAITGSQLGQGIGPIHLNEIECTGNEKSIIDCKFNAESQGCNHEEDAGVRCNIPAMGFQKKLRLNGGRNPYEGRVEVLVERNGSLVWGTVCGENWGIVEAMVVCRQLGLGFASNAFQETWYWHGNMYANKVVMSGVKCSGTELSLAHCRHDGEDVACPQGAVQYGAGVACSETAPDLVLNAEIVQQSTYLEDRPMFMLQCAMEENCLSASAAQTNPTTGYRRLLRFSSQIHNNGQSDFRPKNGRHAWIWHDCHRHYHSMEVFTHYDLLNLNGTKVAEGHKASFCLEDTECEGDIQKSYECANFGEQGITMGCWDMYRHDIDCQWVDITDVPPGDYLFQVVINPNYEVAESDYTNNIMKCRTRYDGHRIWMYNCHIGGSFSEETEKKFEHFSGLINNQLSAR
The experiment in a line: Amine oxidase inhibition profile, dog LOXL2.

pIC50: −log10 of the molar value. Like-named read-outs stand apart in the source and are kept apart here.

This is an account of results in PMC9500072, “Topical application of an irreversible small molecule inhibitor of lysyl oxidases ameliorates skin scarring and fibrosis” (Nature Communications, 2022).

Regarding `N#CCCN` [BAPN, β-aminoproprionitrile, reference compound], on Human recombinant LOXL2, the “Human Recombinant LOXL2 pIC50±SD” value is reported as 6.4 ± 0.1 and the pIC50 is 6.41. Also, on Human Fibroblast LOX, the “Human Fibroblast LOX pIC50±SD” value is listed as 5.5 ± 0.1 and the pIC50 is 5.52. Besides, on Dog Recombinant LOXL2, the “Dog Recombinant LOXL2 pIC50±SD” value is listed as 6.3 ± 0.1 and the negative-log IC50 (pIC50) is 6.32.

In the case of `NC/C=C(\F)CS(=O)(=O)c1ccccc1` [PXS-4787], the results for the pIC50 at Human recombinant LOXL2, on Human Fibroblast LOX and at Dog Recombinant LOXL2 were 6.22, 5.28 and 6.21, respectively. Besides, the inhibition at 30 µM at Human recombinant LOXL2 (log conc -4.5229, read-out: Fig 2A inhibition (mean)) was determined as 98.4%. Besides, the inhibition at 10 µM on Human recombinant LOXL2 (log conc -5, read-out: Fig 2A inhibition (mean)) is 95.6%. For the same molecule, the inhibition at 3.333 µM at Human recombinant LOXL2 (log conc -5.4771, read-out: Fig 2A inhibition (mean)) was 87.6%. On Human recombinant LOXL2 (log conc -5.9542, read-out: Fig 2A inhibition (mean)), the inhibition at 1.111 µM is 67.7%. For the same molecule, on Human recombinant LOXL2 (log conc -6.4313, read-out: Fig 2A inhibition (mean)), the inhibition at 0.3704 µM turned out to be 40.3%. Also, at Human recombinant LOXL2 (log conc -6.9083, read-out: Fig 2A inhibition (mean)), the inhibition at 0.1235 µM came out at 18.8%. For the same molecule, the inhibition at 0.0412 µM on Human recombinant LOXL2 (log conc -7.3851, read-out: Fig 2A inhibition (mean)) was determined as 9.34%. In addition, at Human recombinant LOXL2 (log conc -7.8633, read-out: Fig 2A inhibition (mean)), the inhibition at 0.0137 µM turned out to be 2.56%. Moreover, the inhibition at 0.0046 µM at Human recombinant LOXL2 (log conc -8.3372, read-out: Fig 2A inhibition (mean)) stood at 0.119%. For the same molecule, the inhibition at […] on Human recombinant LOXL2 (log conc -8.8239, read-out: Fig 2A inhibition (mean)) was -0.297%. For the same molecule, on Human recombinant LOXL2 (log conc -9.301, read-out: Fig 2A inhibition (mean)), the inhibition at 0.0005 µM is -1.19%. Also, at Human recombinant LOXL2 (read-out: Human Recombinant LOXL2 pIC50±SD (converted)), the IC50 was 631 nM.

Regarding `NC/C=C(\F)C(F)(F)S(=O)(=O)c1ccccc1` [PXS-6302], the “Human Recombinant LOXL2 pIC50±SD” value at Human recombinant LOXL2 is 6.4 ± 0.2. In addition, the pIC50 at Human recombinant LOXL2 is 6.37; on Human Fibroblast LOX it was 5.35; at Dog Recombinant LOXL2, 6.47. Moreover, at Human Fibroblast LOX (read-out: Human Fibroblast LOX pIC50±SD (converted)), the IC50 is 3980 nM.
